One series relates to HSF1 promoter. The experiment in a line: Triple fluorescent reporter cells, HSF1 promoter activity. The class given is cell-based, human. The settings on record: 100 nM-100 μM, 24 hours. The text has this: (§1) Referring to three references (Zhang Y, Koushik S, Dai R, Mivechi N F, Journal of Biological Chemistry, vol. 273, no. 49, pp. 32514-32521, 1998; He M, Guo H, Yang X, Zhou L, Zhang X, Cheng L, Zeng H, Hu F B, Tanguay R M, Wu T, PLoS One, vol. 5, no. 3, e9684, 2010; and Wu Y R, Wang C K, Chen C M, Hsu Y, Lin S J, Lin Y Y, Fung H C, Chang K H, Lee-Chen G J, Human Genetics, vol. 114, no. 3, pp. 236-241, 2004), a triple fluorescent reporter plasmid was constructed in pAmCyan1-N1 with mCherry, ZsYellow1 and AmCyan1 fluorescent reporters driven by heat shock transcription factor1 (HSF1, −360˜+2, with the translation initiation A as +1), heat shock cognate protein (HSPA8, −1140˜+38, driving constitutively expressed HSP70) and heat-inducible HSP70 chaperone (HSPA1A, −273˜+215, driving heat-inducible HSP70) promoters, respectively. The fragment containing the HSF1, HSPA8 and HSPA1A driven reporters was removed with AseI and NotI restriction enzymes and used to replace an AseI-NotI fragment in pcDNA5/FRT/TO plasmid (Invitrogen). The resulting triple fluorescent reporter plasmid was used to generate triple fluorescent reporter cells by targeted insertion into Flp-In™-293 cells, according to the supplier's instructions (Invitrogen). The cells were selected by medium containing 5 μg/mL blasticidin S and 100 μg/mL hygromycin.
(§2) The three fluorescence colors were analyzed simultaneously using high-content analysis (HCA) system (ImageXpressMICRO, Molecular Devices), with excitation/emission wavelengths at […], 531/540 (ZsYellow1) and […].

A further series concerns HSPA8 promoter. The experiment in a line: Triple fluorescent reporter cells, HSPA8 promoter activity. Format: cell-based, human. Particulars: 100 nM-100 μM, 24 hours.
Excerpt: as §1, §2

The test system of a further series is HSPA1A promoter. Nature of the series: Triple fluorescent reporter cells, HSPA1A promoter activity. Format: cell-based, human. The settings on record: 100 nM-100 μM, 24 hours.
Excerpt: as §1, §2

The test system of series [1] is SCA17 mouse cerebellar slice culture. Nature of the series: SCA17 mouse cerebellar slice culture, Purkinje cell aggregation. The class given is cell-based. Here is the method: Cerebellum was separated from p7 SCA17 mice and transferred to ice-cold medium containing 50% basal medium eagle (Invitrogen), 25% Hank's buffered salt solution (Invitrogen), 25% horse serum (Invitrogen), 0.5% D-glucose (Sigma), 1 mM GlutaMAX I (Invitrogen), 100 U/mL penicillin (Invitrogen) and 100 μg/mL streptomycin (Invitrogen). The cerebellum was separated from the other brain regions in ice-cold medium, and the hemisphere was then cut into 350 μm parasagittal sections with a vibratome (VT1200S, Leica). To improve the survival rate of cerebellar slices, we continuously bubbled the medium with 95% O2 and 5% CO2 during the sectioning. The slices were then cultured on 0.4 μm pore size culture plate inserts (Millipore) in six-well plates. All treatments were applied to the slices at day 2. After culture for 7 days, cells were immunostained with primary antibody [IP3R-1 (for Purkinje cells), 1:1000, Santa Cruz; 1TBP18 (for aggregation), 1:30000, QED Bioscience], fluorescence-conjugated secondary antibody (1:500, Invitrogen) and DAPI (1:10000, Sigma). The staining results were observed by confocal microscope (DMRE, TCS SP2, Leica).
To further confirm neuroprotective potential of the indole compounds, we applied indole and NC001-8 to the SCA17 mouse cerebellar primary and slice cultures, respectively. […]

A short description of series [2]: in vitro. Particulars: human, HEK-293 cells.
Protocol: (§3) Human embryonic kidney HEK-293 cells (ATCC No. CRL-1573) were cultivated in Dulbecco's modified Eagle's medium (DMEM) containing 10% fetal bovine serum (FBS). Human neuroblastoma SH-SY5Y cells (ATCC No. CRL-2266) were maintained in DMEM F12 supplemented with 10% FBS. Cells were cultivated at 37° C. incubator containing 5% CO2 and cell proliferation was measured based upon the reduction of the tetrazolium salt, 3,[4,5-dimethylthiazol-2-yl]-2,5-diphenyl-tetrazolium bromide (MTT). […] After one day, 20 μL MTT (5 mg/mL in PBS, Sigma) was added to cells and incubated for 2 hours. The absorbance of the purple formazan dye was measured at 570 nm by a Bio-Tek μtQuant Universal Microplate Spectrophotometer.
Series [3] can be described thus: in vitro. Particulars: human, SH-SY5Y cells.
Protocol: as §3
A further series deals with 293 ATXN3/Q75-GFP cells. Nature of the series: ATXN3/Q75 aggregation assay (high content analysis). Format: cell-based, human. The settings on record: at 100 nM; 6 days doxycycline and oxaliplatin. Here is the method: Then, doxycycline (10 μg/mL, BD) was added to the medium in each well to induce ATXN3/Q75-GFP expression for 6 days. […] Then, cells were stained with Hoechst 33342 (0.1 μg/mL, Sigma) and aggregation percentage was assessed by high content analysis (HCA) system (ImageXpressMICRO, Molecular Devices), with excitation/emission wavelengths at 482/536 (EGFP).

In a further series the test system is LC3. The experiment in a line: LC3-II/LC3-I ratio (autophagy) in 293 ATXN3/Q75 cells, Western blot. Particulars: 293 ATXN3/Q75 cells +Dox 6 days, 200 nM; +Dox alone 59%. The class given is cell-based, human.
The next series deals with SH-SY5Y cells. The experiment in a line: MTT cytotoxicity against SH-SY5Y cells. Particulars: read-out: IC50 (cytotoxicity) against SH-SY5Y cells; MTT assay, 24 hours.

This note sets out measurements from US9393229B2, “Method for treating abnormal polyglutamine-mediated disease” (NATIONAL TAIWAN NORMAL UNIVERSITY, priority 2013, dated 2016).

A value given as a limit tells only on which side of the number the result lay.

Protocol for LC3: Total proteins were prepared using lysis buffer containing 50 mM Tris-HCl, 150 mM NaCl, 1 mM EDTA, 1 mM EGTA, 0.1% SDS and 0.5% sodium deoxycholate, 1% Triton X-100, and protease inhibitor cocktail (Calbiochem). Proteins (25 μg) were separated on 10% SDS-polyacrylamide gel electrophoresis and blotted on to nitrocellulose membranes by reverse electrophoresis. After blocking, the membrane was probed with antibody to HSF1 (1:1000 dilution, Abnova), HSPA8 (1:500 dilution, Santa Cruz), HSPA1A (1:500 dilution, Santa Cruz), GFP (1:500 dilution, Santa Cruz), LC3 (1:3000 dilution, MBL International), TBP (N-12) (1:500 dilution, Santa Cruz), β-actin (1:5000 dilution, Millipore) or GAPDH (1:1000 dilution, MDBio) at 4° C. overnight. Then the immune complexes were detected by horseradish peroxidase-conjugated goat anti-mouse (Jackson ImmunoResearch) or goat anti-rabbit (Rochland) IgG antibody (1:5000 dilution, GeneTex) and chemiluminescent substrate (Millipore).
Protocol for SH-SY5Y cells: as §3

Regarding `O=C1CCc2[nH]c3ccccc3c21` [NC001-8, 3,4-dihydrocyclopenta[b]indol-1(2H)-one], in the series on HSF1 promoter, the HSF1 promoter activity result was “same trend of enhancement”. Further, the HSPA8 promoter activity entry with HSPA8 promoter is “same trend of enhancement”. In the series on HSPA1A promoter, the HSPA1A promoter activity entry was “same trend of enhancement”. Further, in [1] (10 μM), the “reduction of Purkinje cell aggregation” value is 16%. For the same compound, the IC50 at 24 h in the series “in vitro [2]” was > 1000 µM; in the series “in vitro [3]”, 390 µM.

Turning to `O=C(CCCCCCC(=O)Nc1ccccc1)NO` [SAHA, suberoylanilide hydroxamic acid], the “ATXN3/Q75 aggregation as compared to untreated cells (100%)” value in the series with 293 ATXN3/Q75-GFP cells amounted to 85%.

As to `c1ccc2[nH]ccc2c1` [indole], the HSF1 promoter activity result in the series on HSF1 promoter was “same trend of enhancement”. Further, the HSPA8 promoter activity result with HSPA8 promoter is “same trend of enhancement”. Moreover, the HSPA1A promoter activity result with HSPA1A promoter is given as “same trend of enhancement”. In [1] (10 nM), the “reduction of Purkinje cell aggregation” value came to 28%. Further, the IC50 at 24 h is > 1000 µM in “in vitro [2]” and 680 µM in “in vitro [3]”.

As for `CO[C@H]1C[C@@H]2CC[C@@H](C)[C@@](O)(O2)C(=O)C(=O)N2CCCC[C@H]2C(=O)O[C@H]([C@H](C)C[C@@H]2CC[C@@H](O)[C@H](OC)C2)CC(=O)[C@H](C)/C=C(\C)[C@@H](O)[C@@H](OC)C(=O)[C@H](C)C[C@H](C)/C=C/C=C/C=C/1C` [rapamycin], in the series on LC3, the LC3-II/LC3-I ratio came to 98%.

Turning to “geranylgeranylacetone [GGA, reference compound]”, in the series on 293 ATXN3/Q75-GFP cells, the “ATXN3/Q75 aggregation as compared to untreated cells (100%)” value came to 85%. In addition, the HSF1 promoter activity entry in the series on HSF1 promoter is recorded as “enhanced”. Moreover, the HSPA8 promoter activity result with HSPA8 promoter is given as “enhanced”. Also, the HSPA1A promoter activity entry in the series with HSPA1A promoter is on record as “enhanced”. Besides, the IC50 with SH-SY5Y cells worked out at 1000 µM.
